Key:
Format in all cases: biochemical
PglH = target: T1, PglH (Campylobacter jejuni, UniProt Q0P9C5); experiment: normal-phase HPLC of [3H]-labelled glycan; conditions: [3H]-labelled Und-PP-diNAcBac-GalNAc-GalNAz acceptor
T1 sequence (Q0P9C5 1-359): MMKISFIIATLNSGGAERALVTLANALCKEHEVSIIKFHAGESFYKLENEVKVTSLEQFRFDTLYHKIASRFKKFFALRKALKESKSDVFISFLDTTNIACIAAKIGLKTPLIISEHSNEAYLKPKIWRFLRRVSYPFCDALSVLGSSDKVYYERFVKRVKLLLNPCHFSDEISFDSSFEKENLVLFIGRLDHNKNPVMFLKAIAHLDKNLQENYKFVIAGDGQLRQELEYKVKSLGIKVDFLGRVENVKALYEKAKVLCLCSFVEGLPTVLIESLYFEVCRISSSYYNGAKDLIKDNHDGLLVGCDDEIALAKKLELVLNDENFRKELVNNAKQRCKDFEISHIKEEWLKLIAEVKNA

PglJ = target: T2, PglJ (Campylobacter jejuni, UniProt Q0P9C7); experiment: HPLC and scintillation counting of [3H]-labelled product; conditions: Und-PP-diNAcBac-[3H]-GalNAc acceptor; 100 uM UDP-sugar; PglJ 90 nM
T2 sequence (Q0P9C7 1-365): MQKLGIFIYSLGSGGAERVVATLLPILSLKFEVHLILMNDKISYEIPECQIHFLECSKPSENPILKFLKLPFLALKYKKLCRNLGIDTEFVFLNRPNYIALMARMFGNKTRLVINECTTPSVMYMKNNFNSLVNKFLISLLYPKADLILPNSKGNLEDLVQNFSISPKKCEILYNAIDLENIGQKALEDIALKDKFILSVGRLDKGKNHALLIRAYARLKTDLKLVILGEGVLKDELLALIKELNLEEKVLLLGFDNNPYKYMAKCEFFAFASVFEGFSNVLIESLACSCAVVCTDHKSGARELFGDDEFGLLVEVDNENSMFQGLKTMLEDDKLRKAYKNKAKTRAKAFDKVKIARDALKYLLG

PglC = target: T3, PglC (Campylobacter jejuni, UniProt Q0P9D0); experiment: capillary electrophoresis of APTS-labelled monosaccharide; conditions: Und-P acceptor; 60 min; PglC 10 nM
T3 sequence (Q0P9D0 1-200): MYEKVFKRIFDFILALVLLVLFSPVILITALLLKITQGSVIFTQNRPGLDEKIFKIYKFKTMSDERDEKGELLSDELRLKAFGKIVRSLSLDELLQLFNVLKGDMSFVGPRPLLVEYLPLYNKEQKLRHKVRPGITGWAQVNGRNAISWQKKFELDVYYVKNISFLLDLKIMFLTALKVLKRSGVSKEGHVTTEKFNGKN

CC(=O)N[C@H]1[C@@H](OP(=O)(O)OP(=O)(O)OC[C@H]2O[C@@H](n3ccc(=O)[nH]c3=O)[C@H](O)[C@@H]2O)O[C@H](CO)[C@H](O)[C@@H]1O [UDP-GalNAc]
normal-phase HPLC of [3H]-labelled glycan (PglH): the tolerance of PglH was tested by incubating enzyme with UDP-GalNAc and UDP-GalNAz

[N-]=[N+]=NCC(=O)N[C@H]1[C@@H](OP(=O)(O)OP(=O)(O)OC[C@H]2O[C@@H](n3ccc(=O)[nH]c3=O)[C@H](O)[C@@H]2O)O[C@H](CO)[C@H](O)[C@@H]1O [UDP-GalNAz]
HPLC and scintillation counting of [3H]-labelled product (PglJ): PglJ efficiently incorporates an azido sugar into the Und-PP-trisaccharide

CC(=O)N[C@H]1[C@@H](OP(=O)(O)OP(=O)(O)OC[C@H]2O[C@@H](n3ccc(=O)[nH]c3=O)[C@H](O)[C@@H]2O)O[C@H](C)[C@@H](NC(C)=O)[C@@H]1O [UDP-diNAcBac]
capillary electrophoresis of APTS-labelled monosaccharide (PglC): the conversion was low for both, UDP-diNAcBac and UDP-2-NAc-4-NAzBac

From PMC4599313 (Journal of the American Chemical Society, 2015)
